Data as given in patent US20030186947A1, “Compounds having activity as inhibitors of cytochrome P450RAI” (priority 2000, published 2003).

Experiments:
Assay in all cases: chimeric receptor transactivation assay
Type in all cases: cell-based
Conditions in all cases: value in parentheses
RARα = molecular target: T1, RARα (Homo sapiens, UniProt P10276)
T1 sequence (P10276 183-417 limits assumed): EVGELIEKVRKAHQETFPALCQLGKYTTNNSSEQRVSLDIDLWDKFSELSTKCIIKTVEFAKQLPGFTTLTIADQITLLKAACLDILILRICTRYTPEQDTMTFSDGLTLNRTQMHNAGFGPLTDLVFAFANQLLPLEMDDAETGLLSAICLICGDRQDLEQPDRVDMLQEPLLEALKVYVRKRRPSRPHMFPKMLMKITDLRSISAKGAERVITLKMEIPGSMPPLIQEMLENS
Source text: (§1) Assays described below measure the ability of a compound to bind to, and/or activate various retinoid receptor subtypes. When in these assays a compound binds to a given receptor subtype and activates the transcription of a reporter gene through that subtype, then the compound is considered an agonist of that receptor subtype. […] In the below described assays the ability of the compounds to bind to RARα, RARβ, RARγ, RXRα, RXRβ and RXRγ receptors, and the ability or inability of the compounds to activate transcription of a reporter gene through these receptor subtypes can be tested.
(§2) As far as specific assays are concerned, a chimeric receptor transactivation assay which tests for agonist-like activity in the RARα, RARβ, and RARγ, receptor subtypes, and which is based on work published by Feigner P. L. and Holm M (1989) Focus, 112 is described in detail in U.S. Pat. No. 5,455,265. The specification of U.S. Pat. No. 5,455,265 is hereby expressly incorporated by reference. The numeric results obtained with several preferred compounds of this invention in this assay are shown below in Table 1.
(§3) A holoreceptor transactivation assay and a ligand binding assay which measure the antagonist/agonist like activity of the compounds of the invention, or their ability to bind to the several retinoid receptor subtypes, respectively, are described in published PCT Application No. WO WO93/11755 (particularly on pages 30-33 and 37-41) published on Jun. 24, 1993, the specification of which is also incorporated herein by reference. A detailed experimental procedure for holoreceptor transactivations has been described by Heyman et al. Cell 68, 397-406, (1992); Allegretto et al. J. Biol. Chem. 268, 26625-26633, and Mangelsdorf et al. The Retinoids: Biology, Chemistry and Medicine, pp 319-349, Raven Press Ltd., New York, which are expressly incorporated herein by reference. The results obtained in this assay are expressed in EC50 numbers, as they are also in the chimeric receptor transactivation assay. The results of ligand binding assay are expressed in Kd numbers. (See Cheng et al. Biochemical Pharmacology Vol. 22 pp 3099-3108, expressly incorporated herein by reference.)

RARγ = molecular target: T2, RARγ (Homo sapiens, UniProt P13631)
T2 sequence (P13631 185-419 limits assumed): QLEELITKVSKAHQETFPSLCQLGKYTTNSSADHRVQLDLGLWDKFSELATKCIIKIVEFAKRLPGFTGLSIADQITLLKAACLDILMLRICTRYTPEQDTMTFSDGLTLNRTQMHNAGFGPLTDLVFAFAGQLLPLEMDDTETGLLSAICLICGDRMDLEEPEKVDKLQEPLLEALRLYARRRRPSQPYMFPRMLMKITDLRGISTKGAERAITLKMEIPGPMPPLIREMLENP
Source text: as §1, §2, §3

RARβ = molecular target: T3, RARβ (Homo sapiens, UniProt P10826)
T3 sequence (P10826 183-417 limits assumed): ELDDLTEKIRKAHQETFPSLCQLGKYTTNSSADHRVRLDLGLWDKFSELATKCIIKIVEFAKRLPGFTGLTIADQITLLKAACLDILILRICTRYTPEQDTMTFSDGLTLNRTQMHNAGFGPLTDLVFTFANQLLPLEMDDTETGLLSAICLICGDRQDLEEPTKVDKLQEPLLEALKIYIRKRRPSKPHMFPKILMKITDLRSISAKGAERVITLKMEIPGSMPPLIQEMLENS
Source text: as §1
As far as specific assays are concerned, a chimeric receptor transactivation assay which tests for agonist-like activity in the RARα, RARβ, and RARγ, receptor subtypes, and which is based on work published by Feigner P. L. and Holm M (1989) Focus, 112 is described in detail in U.S. Pat. No. 5,455,265. The specification of U.S. Pat. No. 5,455,265 is hereby expressly incorporated by reference.
as §3, with “A detailed experimental procedure for holoreceptor transactivations has been described by Heyman et al. Cell 68, 397-406, (1992); Allegretto et al. J. Biol. Chem. 268, 26625-26633, and Mangelsdorf et al. The Retinoids: Biology, Chemistry and Medicine, pp 319-349, Raven Press Ltd., New York, which are expressly incorporated herein by reference.” left out

Compound	RAR (EFFICACY) α (RARα)	RAR (EFFICACY) γ (RARγ)	RAR (EFFICACY) β (RARβ)
CN(C1CC1)C1CCC(C)(C)c2cc(C#Cc3ccc(C(=O)O)cc3)ccc21 (centres unmarked) [Compound 3, 4-[(5-Cyclopropyl-methyl-amino)-8,8-dimethyl-5,6,7,8-tetrahydro-naphthalene-2yl-ethynyl]-benzoic acid]	(28)	(52)	(54)
CC1(C)CC2(CC2)Oc2ccc(C#Cc3ccc(C(=O)O)cc3)cc21 [Compound 40, Benzoic acid 4-[(3,4-dihydro-4,4-dimethylspiro[2H-1-benzopyran-2,1′-cyclopropane]-6-yl)ethynyl]-]	(207)	(140)	(126)
CN(C1CC1)C1CCC(C)(C)c2cc(C#Cc3ccc(CC(=O)O)cc3)ccc21 (centres unmarked) [Compound 8, 4-[(5-(Cyclopropyl-methyl-amino)-8,8-dimethyl-5,6,7,8-tetrahydro-naphthalene-2-yl-ethynyl)-phenyl]-acetic acid]			(96)
CC1(C)CCC(=O)c2ccc(C#Cc3ccc(CC(=O)O)cc3)cc21 [Compound 5, 4-[(8,8-Dimethyl-5-oxo-5,6,7,8-tetrahydro-naphthalene-2-yl-ethynyl)-phenyl]-acetic acid]			(36)
Cc1cc(C#Cc2ccc(C(=O)O)cc2)ccc1C1(OCC(C)(C)C)CC1 [Compound 89, 4-[4-[1-(2,2-Dimethylpropyloxy)-cyclopropyl]-3-methyl-phenylethynyl]-benzoic acid]	(20)	(46)	(50)
O=C(O)c1ccc(C#Cc2ccc(C3(NCc4ccccc4)CC3)cc2)cc1 [Compound 112, 4-[4-(1-Benzylamino-cyclopropyl)-phenylethynyl]-benzoic acid]			(37)
Cc1cc(C#Cc2ccc(C(=O)O)cc2)ccc1C1(OCc2ccccc2)CC1 [Compound 81, 4-[4-(l -Benzyloxycyclopropyl)-3-methyl-phenylethynyl]-benzoic acid]		(67)	(80)
CC1(C)CC2(CC2)Oc2ccc(C#Cc3ccc(C(=O)O)c(F)c3)cc21 [Compound 44, 2-Fluoro-benzoic acid, 4-[(3,4-dihydro-4,4-dimethylspiro[2H-1-benzopyran-2,1′-cyclopropane]-6-yl)ethynyl]-]	(138)	(116)	(100)
CC(C)OC1(c2ccc(C#Cc3ccc(C(=O)O)cc3)cc2)CC1 [Compound 73, 4-[4-(1-Isopropoxycyclopropyl)-phenylethynyl]-benzoic acid]		(24)	(39)
CN(C1CC1)C1CCC(C)(C)c2cc(C#Cc3ccc(C(=O)O)c(F)c3)ccc21 (centres unmarked) [Compound 13, 4-[5-(Cyclopropyl-methyl-amino)-8,8-dimethyl-5 6,7,8-tetrahydro-naphthalene-2-yl-ethynyl]-2-fluoro benzoic acid]		(9)	(6.6)
COC1(c2ccc(C#Cc3ccc(C(=O)O)cc3)cc2)CC1 [Compound 69, 4-[4-(1-Methoxycyclopropyl)-phenylethynyl]-benzoic acid]	(10)	(31)	(50)
CCCN(CCC)C1(c2ccc(C#Cc3ccc(C(=O)O)cc3)cc2)CC1 [Compound 110, 4-[4-(1-Dipropylamino-cyclopropyl)-phenylethynyl]-benzoic acid]		(42)	(44)
